# According to US20070128217A1 (priority 2003, published 2007):
# Key:
# [1] = tested on: recombinant human anti-SARS-CoV antibody 03-018; type: binding; set-up: Binding of antibody 03-018 to linear peptides of the N protein of SARS-CoV Urbani / Binding of antibody 03-018 to looped/cyclic peptides of the N protein of SARS-CoV Urbani: unit not given here
# [2] = tested on: rabbit serum obtained by immunizing a rabbit with the SARS-CoV strain Frankfurt 1; type: binding; set-up: Binding of a rabbit serum to linear peptides / Binding of a rabbit serum to looped peptides / Rabbit serum linear peptides / Rabbit serum looped peptides / Binding of a rabbit serum to linear peptides of protein N of SARS-CoV Urbani (Rabbit serum linear peptides) / Binding of a rabbit serum to looped/cyclic peptides of protein N of SARS-CoV Urbani (Rabbit serum looped peptides): unit not given here
# [3] = tested on: control sera (pooled serum of ten healthy LUMC hospital workers; commercial negative donor pooled serum from the Dutch bloodbank); type: binding, human; set-up: Binding of Control serum LUMC to linear peptides / Binding of Control serum Blood-bank to linear peptides / Binding of Control serum LUMC to looped peptides / Binding of Control Serum Blood-Bank to Looped peptides / Binding of Control serum LUMC to linear peptides of the protein M of SARS-CoV Urbani / Binding of Control serum Blood-bank to linear peptides of the protein M of SARS-CoV Urbani / Binding of Control serum LUMC to looped peptides of the protein M of SARS-CoV Urbani / Binding of Control Serum Blood-Bank to Looped peptides of the protein M of SARS-CoV Urbani: unit not given here
# [4] = tested on: antibodies in sera from SARS patients (sera 1a, 1b, 2, 6, 37, 62, London, SARS-yellow, SARS-green); type: binding, human; set-up: Binding of serum 6 to linear peptides of protein X1 of SARS-CoV Urbani / Binding of serum 37 to linear peptides of protein X1 of SARS-CoV Urbani / Binding of serum 6 to looped/cyclic peptide (PEPSCAN-ELISA) / Binding of serum 37 to looped/cyclic peptide (PEPSCAN-ELISA) / Binding of serum 37 to looped/cyclic peptides of protein X1 of SARS-CoV Urbani / Binding of serum 6 to linear peptides of protein X2 / Binding of serum 37 to linear peptides of protein X2 / Binding of serum 37 to looped/cyclic peptides of protein X2 of SARS-CoV Urbani / Binding of serum 6 to linear peptides of protein M of SARS-CoV Urbani / Binding of serum 37 to linear peptides of protein M of SARS-CoV Urbani / Binding of serum 6 to looped/cyclic peptides of protein M of SARS-CoV Urbani / Binding of serum 37 to looped/cyclic peptides of protein M of SARS-CoV Urbani / Binding of serum 6 to linear peptides of protein X3 of SARS-CoV Urbani / Binding of serum 37 to linear peptides of protein X3 of SARS-CoV Urbani / Binding of serum 37 to looped/cyclic peptides of protein X3 of SARS-CoV Urbani / Binding of serum 6 to linear peptides of protein X4 of SARS-CoV Urbani / Binding of serum 37 to linear peptides of protein X4 of SARS-CoV Urbani / Binding of serum 37 to looped/cyclic peptides of protein X4 of SARS-CoV Urbani / Binding of serum 6 to linear peptides of protein X5 of SARS-CoV Urbani / Binding of serum 37 to linear peptides of protein X5 of SARS-CoV Urbani / Binding of serum 37 to looped/cyclic peptides of protein X5 of SARS-CoV Urbani / Binding of serum 6 to linear peptides of protein N of SARS-CoV Urbani / Binding of serum 37 to linear peptides of protein N of SARS-CoV Urbani / Binding of serum 6 to linear peptide (PEPSCAN-ELISA) / Binding of serum 1a to looped/cyclic peptides of protein N of SARS-CoV Urbani / Binding of serum 1b to looped/cyclic peptides of protein N of SARS-CoV Urbani / Binding of serum 2 to looped/cyclic peptides of protein N of SARS-CoV Urbani / Binding of serum 6 to looped/cyclic peptides of protein N of SARS-CoV Urbani / Binding of serum 37 to looped/cyclic peptides of protein N of SARS-CoV Urbani / Binding of serum 62 to looped/cyclic peptides of protein N of SARS-CoV Urbani / Binding of serum London to looped/cyclic peptides of protein N of SARS-CoV Urbani / Binding of serum SARS-green to looped/cyclic peptides of protein N of SARS-CoV Urbani: unit not given here
sequence,measurement,setting,value
QLQNSMSGASADSTQ,Binding of antibody 03-018 to linear peptides of the N protein of SARS-CoV Urbani,[1],0.1
same,Binding of antibody 03-018 to looped/cyclic peptides of the N protein of SARS-CoV Urbani,[1],0.2
same,Binding of a rabbit serum to linear peptides of protein N of SARS-CoV Urbani (Rabbit serum linear peptides),[2],0.7
same,Binding of a rabbit serum to looped/cyclic peptides of protein N of SARS-CoV Urbani (Rabbit serum looped peptides),[2],0.5
same,Control Serum Blood-Bank Looped peptides,[3],0.5
same,Control serum Blood-bank linear peptides,[3],0.8
same,Control serum LUMC linear peptides,[3],0.6
same,Control serum LUMC looped peptides,[3],0.4
same,Binding of serum 1a to linear peptides of protein N of SARS-CoV Urbani,[4],0.2
same,Binding of serum 1a to looped/cyclic peptides of protein N of SARS-CoV Urbani,[4],0.3
same,Binding of serum 1b to linear peptides of protein N of SARS-CoV Urbani,[4],0.1
same,Binding of serum 1b to looped/cyclic peptides of protein N of SARS-CoV Urbani,[4],0.1
same,Binding of serum 2 to linear peptides of protein N of SARS-CoV Urbani,[4],0.2
same,Binding of serum 2 to looped/cyclic peptides of protein N of SARS-CoV Urbani,[4],0.4
same,Binding of serum 6 to linear peptides of protein N of SARS-CoV Urbani,[4],0.1
same,Binding of serum 6 to looped/cyclic peptides of protein N of SARS-CoV Urbani,[4],0.1
same,Binding of serum 37 to linear peptides of protein N of SARS-CoV Urbani,[4],0.7
same,Binding of serum 37 to looped/cyclic peptides of protein N of SARS-CoV Urbani,[4],0.4
same,Binding of serum 62 to linear peptides of protein N of SARS-CoV Urbani,[4],0.5
same,Binding of serum 62 to looped/cyclic peptides of protein N of SARS-CoV Urbani,[4],0.1
same,Binding of serum London to linear peptides of protein N of SARS-CoV Urbani,[4],0.6
same,Binding of serum London to looped/cyclic peptides of protein N of SARS-CoV Urbani,[4],0.3
same,Binding of serum SARS-green to linear peptides of protein N of SARS-CoV Urbani,[4],0.3
same,Binding of serum SARS-green to looped/cyclic peptides of protein N of SARS-CoV Urbani,[4],0.1
same,Binding of serum SARS-yellow to linear peptides of protein N of SARS-CoV Urbani,[4],0.6
same,Binding of serum SARS-yellow to looped/cyclic peptides of protein N of SARS-CoV Urbani,[4],0.1
QNGGRNGARPKQRRP,Binding of antibody 03-018 to linear peptides of the N protein of SARS-CoV Urbani,[1],0.2
same,Binding of antibody 03-018 to looped/cyclic peptides of the N protein of SARS-CoV Urbani,[1],0.3
same,Binding of a rabbit serum to linear peptides of protein N of SARS-CoV Urbani (Rabbit serum linear peptides),[2],0.2
same,Binding of a rabbit serum to looped/cyclic peptides of protein N of SARS-CoV Urbani (Rabbit serum looped peptides),[2],0.4
same,Binding of Control Serum Blood-Bank to Looped peptides,[3],0.6
same,Binding of Control serum Blood-bank to linear peptides,[3],0.6
same,Binding of Control serum LUMC to linear peptides,[3],0.8
same,Binding of Control serum LUMC to looped peptides,[3],0.8
same,Binding of serum 1a to linear peptides of protein N of SARS-CoV Urbani,[4],0.2
same,Binding of serum 1a to looped/cyclic peptides of protein N of SARS-CoV Urbani,[4],0.3
same,Binding of serum 1b to linear peptides of protein N of SARS-CoV Urbani,[4],0.1
same,Binding of serum 1b to looped/cyclic peptides of protein N of SARS-CoV Urbani,[4],0.1
same,Binding of serum 2 to linear peptides of protein N of SARS-CoV Urbani,[4],0.3
same,Binding of serum 2 to looped/cyclic peptides of protein N of SARS-CoV Urbani,[4],0.3
same,Binding of serum 6 to linear peptides of protein N of SARS-CoV Urbani,[4],0.2
same,Binding of serum 6 to looped/cyclic peptides of protein N of SARS-CoV Urbani,[4],0.2
same,Binding of serum 37 to linear peptides of protein N of SARS-CoV Urbani,[4],0.7
same,Binding of serum 37 to looped/cyclic peptides of protein N of SARS-CoV Urbani,[4],0.6
same,Binding of serum 62 to linear peptides of protein N of SARS-CoV Urbani,[4],0.8
same,Binding of serum 62 to looped/cyclic peptides of protein N of SARS-CoV Urbani,[4],0.4
same,Binding of serum London to linear peptides of protein N of SARS-CoV Urbani,[4],0.5
same,Binding of serum London to looped/cyclic peptides of protein N of SARS-CoV Urbani,[4],0.3
same,Binding of serum SARS-green to linear peptides of protein N of SARS-CoV Urbani,[4],0.5
same,Binding of serum SARS-green to looped/cyclic peptides of protein N of SARS-CoV Urbani,[4],0.6
same,Binding of serum SARS-yellow to linear peptides of protein N of SARS-CoV Urbani,[4],0.7
same,Binding of serum SARS-yellow to looped/cyclic peptides of protein N of SARS-CoV Urbani,[4],0.5
QPTVTLLPAADMDDF,Binding of antibody 03-018 to linear peptides of the N protein of SARS-CoV Urbani,[1],0.1
same,Binding of antibody 03-018 to looped/cyclic peptides of the N protein of SARS-CoV Urbani,[1],0.2
same,Binding of a rabbit serum to linear peptides of protein N of SARS-CoV Urbani (Rabbit serum linear peptides),[2],0.1
same,Binding of a rabbit serum to looped/cyclic peptides of protein N of SARS-CoV Urbani (Rabbit serum looped peptides),[2],0.0
same,Control Serum Blood-Bank Looped peptides,[3],0.5
same,Control serum Blood-bank linear peptides,[3],0.7
same,Control serum LUMC linear peptides,[3],0.5
same,Control serum LUMC looped peptides,[3],0.5
same,Binding of serum 1a to linear peptides of protein N of SARS-CoV Urbani,[4],0.3
same,Binding of serum 1a to looped/cyclic peptides of protein N of SARS-CoV Urbani,[4],0.3
same,Binding of serum 1b to linear peptides of protein N of SARS-CoV Urbani,[4],0.2
same,Binding of serum 1b to looped/cyclic peptides of protein N of SARS-CoV Urbani,[4],0.2
same,Binding of serum 2 to linear peptides of protein N of SARS-CoV Urbani,[4],0.2
same,Binding of serum 2 to looped/cyclic peptides of protein N of SARS-CoV Urbani,[4],0.2
same,Binding of serum 6 to linear peptides of protein N of SARS-CoV Urbani,[4],0.2
same,Binding of serum 6 to looped/cyclic peptides of protein N of SARS-CoV Urbani,[4],0.1
same,Binding of serum 37 to linear peptides of protein N of SARS-CoV Urbani,[4],1.1
same,Binding of serum 37 to looped/cyclic peptides of protein N of SARS-CoV Urbani,[4],0.5
same,Binding of serum 62 to linear peptides of protein N of SARS-CoV Urbani,[4],0.7
same,Binding of serum 62 to looped/cyclic peptides of protein N of SARS-CoV Urbani,[4],0.3
same,Binding of serum London to linear peptides of protein N of SARS-CoV Urbani,[4],0.5
same,Binding of serum London to looped/cyclic peptides of protein N of SARS-CoV Urbani,[4],0.2
same,Binding of serum SARS-green to linear peptides of protein N of SARS-CoV Urbani,[4],1.9
same,Binding of serum SARS-green to looped/cyclic peptides of protein N of SARS-CoV Urbani,[4],0.4
same,Binding of serum SARS-yellow to linear peptides of protein N of SARS-CoV Urbani,[4],0.7
same,Binding of serum SARS-yellow to looped/cyclic peptides of protein N of SARS-CoV Urbani,[4],0.4
QQGQTVTKKSAAEAS,Binding of antibody 03-018 to linear peptides of the N protein of SARS-CoV Urbani,[1],0.1
same,Binding of antibody 03-018 to looped/cyclic peptides of the N protein of SARS-CoV Urbani,[1],0.2
same,Binding of a rabbit serum to linear peptides of protein N of SARS-CoV Urbani (Rabbit serum linear peptides),[2],0.2
same,Binding of a rabbit serum to looped/cyclic peptides of protein N of SARS-CoV Urbani (Rabbit serum looped peptides),[2],0.0
same,Binding of Control Serum Blood-Bank to Looped peptides,[3],0.5
same,Binding of Control serum Blood-bank to linear peptides,[3],0.8
same,Binding of Control serum LUMC to linear peptides,[3],0.7
same,Binding of Control serum LUMC to looped peptides,[3],0.5
same,Binding of serum 1a to looped/cyclic peptides of protein N of SARS-CoV Urbani,[4],0.5
same,Binding of serum 1b to looped/cyclic peptides of protein N of SARS-CoV Urbani,[4],0.4
same,Binding of serum 2 to looped/cyclic peptides of protein N of SARS-CoV Urbani,[4],0.5
same,Binding of serum 6 to looped/cyclic peptides of protein N of SARS-CoV Urbani,[4],0.3
same,Binding of serum 37 to looped/cyclic peptides of protein N of SARS-CoV Urbani,[4],0.6
same,Binding of serum 62 to looped/cyclic peptides of protein N of SARS-CoV Urbani,[4],0.5
same,Binding of serum London to looped/cyclic peptides of protein N of SARS-CoV Urbani,[4],0.4
same,Binding of serum SARS-green to looped/cyclic peptides of protein N of SARS-CoV Urbani,[4],0.8
same,Binding of serum SARS-yellow to looped/cyclic peptides of protein N of SARS-CoV Urbani,[4],0.5
same,"Recognition of the peptide by sera of SARS-CoV infected individuals, and form (linear, looped/cyclic) in which it is recognized",[4],recognized in linear form
